Columns and labels:
[1] = tested on: HEK293T-eGFP cells; assay: MTT cytotoxicity assay, 72 hours; assay type: cell-based; conditions: 72 h; HEK293T-eGFP cells, 3 days of incubation, MTT; read-out: IC50
Description: Cells were cultured for 16–24 hours under standard culturing conditions (5% CO2, 37 °C). […] All dose ranges were added in duplicate, followed by 72 hours of incubation. Cell viability was determined using a tetrazolium based metabolic activity assay. Briefly, 5 µL of 3-(4.5-dimethylthiazol-2-yl)-2,5-diphenyltetrazolium bromide (MTT) solution (5 mg/mL MTT in sterile PBS) was added per well, and the microplates were incubated for 4 hours at 37°C and 5% CO2 in a cell culture incubator. Next, 40 µL of 10% SDS/0.01 M HCl was added per well, and the microplates were incubated for 24–72 hours at 37°C and 5% CO2 in a cell culture incubator. Subsequently the absorbance at 570 nm and background absorbance at 720 nm were measured using the Spectramax i3x (Molecular Devices, San Jose, USA). Subsequently, the absorbance values at 720 nm were subtracted from the absorbance values at 570 nm, and the corresponding values were used to plot dose-response curves.
The data was normalized to the DMSO-treated cells (defined as 100% viability) and the empty controls (defined as 0% viability).

[2] = tested on: eGFP locus in HEK293T-eGFP cells (HDR vs NHEJ); assay: CRISPR gene-editing outcome (eGFP to BFP conversion, flow cytometry) with CRISPR-Cas9 LNP; assay type: cell-based
Description: (§1) Compounds were assessed in three dosages to assess the effects on gene-editing efficacy. […] Cells were incubated with these compounds for 24 hours prior to LNP addition. LNP were added to all wells at a final concentration of 20 nM SpCas9 to achieve robust genome editing. After 24 hours of co-incubation, medium was refreshed and cells were transferred to a 48 well plate for further culturing. Six days after adding compounds, cells were processed for flow cytometric analysis of the gene knock-out and gene-correction efficiencies. Briefly, a ssDNA template was used carrying two nucleotide mutations to convert the eGFP sequence to that of a blue fluorescent protein (BFP), as well as mutating the PAM sequence to ensure robust HDR. The sgRNA spacer sequence was 5’-[…]-3’, and the HDR template sequence was 5’-[…]-3’.
Flow cytometry using the BD FACS Canto II (Becton Dickinson) was used to determine cells undergoing NHEJ (eGFP and BFP negative population) and HDR (eGFP negative, BFP positive). Data analysis was performed using Flowlogic (version 8.7). Graphpad PRISM (version 9.3.1) was used for statistical analysis and preparing graphs.
(§2) The percentage of HDR relative to total gene editing in a given cell population (hereafter named Relative HDR (% of edited cells) was calculated by dividing the absolute HDR population by the sum of gene-edited cells found in the BFP+ and eGFP- gates. Absolute HDR (% of all cells) and Absolute NHEJ (% of all cells) were analyzed where appropriate. The gating strategy is given in S1 Fig in S1 File.

[3] = tested on: eGFP locus in Hepa 1–6-eGFP cells (HDR vs NHEJ); assay: CRISPR gene-editing outcome (eGFP to BFP, flow cytometry) with ProDeliverIN CRISPR; assay type: cell-based, murine; conditions: for dosage with overall high efficacy and manageable toxicity: Hepa 1–6-eGFP
Source text: Lipid nanoparticles (LNP) carrying SpCas9, sgRNA and HDR template DNA were formulated using the components and molecular ratios described previously. 1,1′-((2-(4-(2-((2-(bis(2-hydroxydodecyl)amino)ethyl)(2-hydroxydodecyl)amino)ethyl)piperazin-1-yl)ethyl)azanediyl)bis(dodecan-2-ol) (C12-200) was acquired from CordonPharma (Plankstadt, Germany) and used as the ionizable lipid in the formulation. 1,2-dioleoyl-sn-glycero-3-phosphoethanolamine (DOPE) was acquired from Lipoid GmbH (Steinhausen, Switzerland), Cholesterol and 1,2-dimyristoyl-rac-glycero-3-methoxypolyethylene glycol-2000 (PEG-DMG) were acquired from Sigma-Aldrich, and 1,2-dioleoyl-3-trimethylammonium-propane (DOTAP) was acquired from Merck (Darmstadt, Germany). LNP were produced using microfluidic mixing with the Dolomite Microfluidics system (Dolomite Microfluidics, Royston, United Kingdom) and herring-bone micromixer chip with hydrophilic coating (Dolomite Microfluidics, catalogue number 3200401). A total flow rate of 1.5 mL/min and flow rate ratio of 2:1 were used between an aqueous outer phase containing SpCas9, sgRNA and HDR template in nuclease free water, and the lipids in 100% ethanol in the inner phase, respectively. The resulting LNP were diluted 4 times in Dulbecco’s PBS (Sigma-Aldrich). In the experiments using the Hepa 1–6 eGFP cells, ProDeliverIN CRISPR (OZ Biosciences, San Diego, USA) was used as reported previously.
as §1
Flow cytometry using the BD FACS Canto II (Becton Dickinson) was used to determine cells undergoing NHEJ (eGFP and BFP negative population) and HDR (eGFP negative, BFP positive). […]
as §2

[4] = tested on: HEK293T cells; assay: MTS time-resolved cytotoxicity and morphology; assay type: cell-based
Description: (§3) A narrower cytotoxicity range was determined by exposing cells to 0.1–1 µM of the tested compounds. 48 hours after treatment started, cells were washed and harvested using medium and one third of the volume was transferred to a fresh 96 well plate, analogous to how cells are treated during gene editing experiments. Subsequently, cells were cultured for another 3–5 days. In the case of 5 days, one third of the cells was again transferred into a fresh 96-well plate on day 3 to allow enough space for logarithmic cell growth during the additional incubation time. Cell viability was determined by the Promega One Step MTS assay (Promega, Madison, USA) using the manufacturer’s specifications. Relative cell viability for the Hepa 1–6-eGFP cells was calculated by normalizing the compound conditions to controls treated with DMSO only or DMSO plus gene editing formulations. For the HEK293T cells, the absolute absorbance at […] was used as it was more representative of the relative cell viability between samples.
(§4) Cell morphology was assessed using the Nikon Eclipse Ti2 microscope (Nikon Europe, Amstelveen, The Netherlands). Pictures were acquired at 10x magnification with a Nikon DSLR 10 camera using the same imaging settings within each experiment set (Nikon Europe, Amstelveen, The Netherlands).

[5] = MTS cell viability and morphology, 5 days; assay type: cell-based, murine; conditions: mouse, Hepa 1–6-eGFP cells; 0.3 µM, MTS 5 days after start of treatment; read-out: relative cell viability
Description: as §3, §4

[6] = tested on: Hepa 1–6-eGFP cells; assay: MTS cell viability and morphology, 5 days; assay type: cell-based, murine; conditions: for cell morphology by microscopy: 0.3 µM, after 5 days, vs untreated control
Description: as §3, §4

[7] = tested on: primary murine hepatocytes; assay: MTT cytotoxicity on primary hepatocytes; assay type: cell-based, murine (Ai9 mice); conditions: for IC50: Mus musculus, Hepatocyte
Description: Primary murine hepatocytes were harvested from Ai9 mice and cultured in 2D prior to transfection as previously reported. […] Toxicity was measured at this timepoint, and 72 hours later,. Cell viability was calculated by subtracting a medium blank from the absorption, and dividing the absorption by that of a vehicle-only control.

[8] = tested on: PCSK9 locus in Hepa 1–6 cells; assay: PCSK9 genome editing, Sanger sequencing and TIDER; assay type: cell-based, murine; conditions: TIDER, 0.3 µM
Description: Transfection mixtures were prepared to deliver 30 nM RNP (and where applicable 60 nM HDR template DNA) respectively using the commercial ProdeliverIN CRISPR kit. Following this, the cells were incubated for an additional 48h followed by cell lysis and DNA purification using the DNeasy Blood and Tissue kit (Qiagen, Venlo, The Netherlands) using the manufacturers protocol for cell line lysis. Subsequently, PCR was done using the primer set in S1 Table using the Phusion Hotstart Dna Polymerase (Thermo Fischer Scientific) and the recommended thermocycle conditions and PCR mix by the manufacturer. PCR products were purified using the GeneJET PCR Purification Kit (Thermo Fischer Scientific) and finally prepared for Sanger sequencing performed by Macrogen (Amsterdam, The Netherlands. Data was analyzed using the TIDER software package available at http://shinyapps.datacurators.nl/tider/ using an untreated sequencing plot as control chromatogram and a dsDNA gBlock (Integrated DNA Technologies) containing the desired mutation as reference chromatogram. Total gene editing and HDR were analyzed for S7 Figure.

[9] = tested on: HEK293T-eGFP cells; assay: MTT cytotoxicity assay, 72 hours; assay type: cell-based; conditions: 0.1 µM, MTT toxicity curve (S2 Fig), two days after treatment
[10] = tested on: AURKA; set-up: method as in manufacturer; conditions: ref manufacturer; cited from earlier work
[11] = tested on: AURKB; set-up: method as in manufacturer; conditions: ref manufacturer; cited from earlier work

In the case of `COc1cc(Nc2ncc3c(n2)-c2ccc(Cl)cc2C(c2c(F)cccc2OC)=NC3)ccc1C(=O)O` [Alisertib], the IC50 [1] is reported as greater than 10 µM, the “increase in preferential gene correction over gene knock-out” value ([2]; HEK293T, eGFP locus, sub-micromolar dosages) is reported as “over 4 fold” and the “lowest effective concentration for preferential HDR activation” value ([2]; HEK293T-eGFP cells, narrow dose range) is reported as 0.3 µM. The “preferential activation of HDR over NHEJ in hit validation” value ([2]; narrowed dose range, triplicate, vs LNP only) was “strong dose-dependent preferential activation of HDR over NHEJ”, the “effect on the NHEJ and HDR outcomes” value ([2]; validated hits, Fig 2B) was “inhibited NHEJ and improved HDR” and the “increase in preferential gene correction over gene knock-out” value ([3]; Hepa 1–6, eGFP locus, sub-micromolar dosages) was “over 4 fold”. The “dosage with overall high efficacy and manageable toxicity” value [3] was 0.3 µM, the “toxicity at different incubation times” value ([4]; MTS, total incubation time varied (S5 Fig A)) was “did not vary significantly” and the “cell viability by MTS” value ([4]; after 2 days) was “not affected”. For the same molecule, the “cell viability by MTS” value ([4]; after 5 days) was “dose-dependent decrease in cell viability”, the “metabolic activity and confluency” value ([4]; seven days after treatment started, at least 0.3 µM) was “very low metabolic activity and confluency” and the viability at 5 days, 0.3 µM [5] was 37%. The “cell morphology by microscopy” value [6] was “did not change as drastically”, the IC50 ([7]; 48h after exposure) was 32.7 µM and the IC50 ([7]; 120h after exposure (48h incubation)) was 54.8 µM. For the same molecule, the “toxicity (order of)” value ([7]; primary murine hepatocytes, both timepoints) was 30 to 50 µM, the “HDR at the PCSK9 locus” value [8] was “measurable only when alisertib was present” and the “loss of cell viability” value [9] was 20%.
For `CC(=O)NCC(=O)N1[C@@H]2CC[C@H]1c1ccc(Nc3ncc(C(F)(F)F)c(NC4CCC4)n3)cc12` [PF-03814735], the “dosage with overall high efficacy and manageable toxicity” value [3] was 0.2 µM, the “cell morphology by microscopy” value [6] was “did not change as drastically” and the “comparative cytotoxicity of the aurora kinase inhibitors” value ([6]; Hepa 1–6-eGFP) was “clearly more drastic toxicity”. For the same molecule, the IC50 [10] was […] and the IC50 [11] was 0.0005 µM.
